From paper PMC7756392, “Syntheses of Thailandepsin B Pseudo‐Natural Products: Access to New Highly Potent HDAC Inhibitors via Late‐Stage Modification” (Chemistry (Weinheim an Der Bergstrasse, Germany), 2020) come the findings set out here.

A value given as a limit tells only on which side of the number the result lay.

One experiment deals with T1, human recombinant HDAC6 (Homo sapiens, UniProt Q9UBN7).
T1 construct: purchased BPS Bioscience 50006
T1 sequence (Q9UBN7 1-1215): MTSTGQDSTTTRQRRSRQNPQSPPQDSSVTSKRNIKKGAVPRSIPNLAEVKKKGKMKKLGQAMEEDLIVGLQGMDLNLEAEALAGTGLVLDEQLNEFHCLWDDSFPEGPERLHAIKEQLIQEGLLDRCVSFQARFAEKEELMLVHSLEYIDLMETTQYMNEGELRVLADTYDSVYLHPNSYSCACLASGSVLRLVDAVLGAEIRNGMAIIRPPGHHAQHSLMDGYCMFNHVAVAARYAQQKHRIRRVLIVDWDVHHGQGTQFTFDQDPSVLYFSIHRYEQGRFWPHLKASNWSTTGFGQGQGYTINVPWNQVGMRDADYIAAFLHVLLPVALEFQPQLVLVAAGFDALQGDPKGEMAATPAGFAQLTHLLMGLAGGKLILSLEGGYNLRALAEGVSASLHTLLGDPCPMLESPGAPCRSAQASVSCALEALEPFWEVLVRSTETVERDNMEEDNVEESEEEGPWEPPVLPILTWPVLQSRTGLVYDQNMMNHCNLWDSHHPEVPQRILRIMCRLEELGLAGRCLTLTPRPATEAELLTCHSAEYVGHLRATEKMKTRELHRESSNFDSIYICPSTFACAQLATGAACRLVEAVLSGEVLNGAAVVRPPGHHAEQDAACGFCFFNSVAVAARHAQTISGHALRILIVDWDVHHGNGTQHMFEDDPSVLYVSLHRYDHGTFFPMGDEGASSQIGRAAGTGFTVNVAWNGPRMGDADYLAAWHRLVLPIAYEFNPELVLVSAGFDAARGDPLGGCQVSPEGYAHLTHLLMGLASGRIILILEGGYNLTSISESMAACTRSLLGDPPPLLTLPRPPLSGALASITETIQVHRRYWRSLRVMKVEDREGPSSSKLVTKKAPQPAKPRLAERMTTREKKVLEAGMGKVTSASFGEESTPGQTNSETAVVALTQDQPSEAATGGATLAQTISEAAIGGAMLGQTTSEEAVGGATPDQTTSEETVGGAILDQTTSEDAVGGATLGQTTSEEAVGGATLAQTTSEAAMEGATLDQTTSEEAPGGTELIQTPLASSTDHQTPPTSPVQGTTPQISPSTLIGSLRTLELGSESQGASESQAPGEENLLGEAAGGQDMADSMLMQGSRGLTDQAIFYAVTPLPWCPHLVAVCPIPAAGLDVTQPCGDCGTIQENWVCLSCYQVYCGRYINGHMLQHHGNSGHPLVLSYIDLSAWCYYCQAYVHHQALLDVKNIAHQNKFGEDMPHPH
Put plainly: ZMAL trypsin assay, HDAC6. Type of experiment: biochemical. Conditions: for inhibition at 10 µM: ZMAL trypsin assay. The procedure: (§1) [28] Assays for HDAC1/6 were prepared according to: B. Heltweg , J. Trapp , M. Jung , Methods 2005, 36, 332–337; assays for HDAC8 were prepared according to: J. Senger , J. Melesina , M. Marek , C. Romier , I. Oehme , O. Witt , W. Sippl , M. Jung , J. Med. Chem. 2016, 59, 1545–1555. […]
(§2) hHDAC1/6: Activity assays were performed in OptiPlateTM-96 F black microplates (PerkinElmer). Commercial available enzymes (human recombinant HDAC1; BPS Bioscience, catalog no. 50051 and human recombinant HDAC6; BPS Bioscience, catalog no. 50006) were used. Total assay volume of 60 µL contains 42 µl of assay buffer (50 mM Tris -HCl, pH 8.0, 137 mM NaCl, 2.7 mM KCl, 1 mM MgCl2, 0.2 mM TCEP and 1 mg/mL bovine serum albumin), 10 µL of enzyme solution in assay buffer, 3 µL of increasing concentrations of inhibitors in DMSO and 5 μL of the fluorogenic substrate ZMAL (Z -(Ac)Lys-AMC) (126 μM). After incubation (90 min, 37 °C) 60 µL of stop solution, containing 5 μL Trichostatin A (TSA) (33 μM) and 10 μL trypsin (6 mg/mL) in trypsin buffer (Tris-HCl 50 mM, pH 8.0, NaCl 100 mM), were added. […]

The test system of another experiment is HDAC in HeLa cells. Put plainly: Cellular HDAC activity assay, HeLa. The experiment is classed as cell-based. As to conditions: for IC50: read-out: cellular HDAC inhibition IC50. The procedure: Cellular trypsin-based activity assay:13 1 x 10^4 Hela cells (50 µL) were seeded in sterile dark 96-well microtiter plates (Perkin Elmer) and incubated overnight at 37 °C and 5% CO2 atmosphere. The next day, the medium was aspirated and the cells were incubated with different inhibitor concentrations or DMSO, diluted in 50 µL m edium without supplements and phenol red. After 2 h incubation time, 50 µL of the HDAC substrate MAL (Boc -Lys(Ac)-AMC) were added to a final concentration of 150 µM and the plate was incubated for 2 h at 37°C and 5%
CO2. The reaction was stopped by adding 50 µL of stop solution (50 mM Tris, 137 mM NaCl, 1 mM MgCl2, 2.7 mM KCl, 1 µM TSA, 0.1% Igepal, 1 mg/ml Trypsin). After another 20 min of incubation, the fluorescence signal (λex = 390 nm, λem = 460 nm) was measured on a BMG LABTECH POLARstar OPTIMA plate reader (BMG Labtechnologies, Germany). […]

The target of another experiment is T2, human recombinant HDAC1 (Homo sapiens, UniProt Q13547).
T2 construct: purchased BPS Bioscience 50051
The experiment in a line: ZMAL trypsin assay, HDAC1. The experiment is classed as biochemical. As to conditions: ZMAL trypsin assay. The procedure:
as §1, §2

T2 sequence (Q13547 whole entry): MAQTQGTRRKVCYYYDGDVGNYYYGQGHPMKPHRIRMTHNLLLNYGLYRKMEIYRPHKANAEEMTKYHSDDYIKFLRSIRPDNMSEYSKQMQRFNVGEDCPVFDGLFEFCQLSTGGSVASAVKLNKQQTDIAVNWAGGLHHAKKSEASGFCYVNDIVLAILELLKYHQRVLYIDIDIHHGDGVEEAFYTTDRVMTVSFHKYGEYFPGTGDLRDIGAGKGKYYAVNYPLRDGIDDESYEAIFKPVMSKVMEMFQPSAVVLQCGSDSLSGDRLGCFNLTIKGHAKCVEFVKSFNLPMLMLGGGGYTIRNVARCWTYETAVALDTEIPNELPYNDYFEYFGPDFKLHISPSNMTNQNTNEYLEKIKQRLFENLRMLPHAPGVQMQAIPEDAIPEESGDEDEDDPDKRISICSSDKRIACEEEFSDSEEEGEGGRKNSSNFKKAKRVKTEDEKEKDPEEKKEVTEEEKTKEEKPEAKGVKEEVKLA

As a reminder, the inhibition is the change of the read-out against control, counted positive when it falls. The IC50 is the concentration that gives 50% inhibition. For `CCCC[C@H]1NC(=O)C[C@@H](/C=C/CCC(=O)NO)OC(=O)C[C@H](O)[C@@H]([C@@H](C)CC)NC(=O)[C@@H](C)NC1=O` [compound 8], the inhibition at 10 µM at human recombinant HDAC6 was found to be 39%. For the same compound, the “HDAC inhibition in cells at 5 μM (in words)” value in the experiment on HDAC in HeLa cells (5 μM) is on record as “no HDAC inhibition”. For the same compound, the concentration for half-maximal inhibition (IC50) on human recombinant HDAC1 was determined as 28 ± 2 nM.
Regarding `CCCC[C@H]1NC(=O)C[C@@H](/C=C/CCSC(C)=O)OC(=O)C[C@H](O[Si](C)(C)C(C)(C)C)[C@@H]([C@@H](C)CC)NC(=O)[C@@H](C)NC1=O` [compound 32], on human recombinant HDAC6, the “HDAC6 inhibition (in words)” value is recorded as “not inhibited” and the inhibition at 10 µM is under 5%. Moreover, in the experiment with HDAC in HeLa cells, the IC50 is 58600 ± 1300 nM. At human recombinant HDAC1, the IC50 worked out at 18700 ± 8900 nM.
For the compound `CCCC[C@H]1NC(=O)C[C@@H](/C=C/CCSC(C)=O)OC(=O)C[C@H](O)[C@@H]([C@@H](C)CC)NC(=O)[C@@H](C)NC1=O` [compound 33], at human recombinant HDAC6, the inhibition at 10 µM was 30%. The IC50 stood at 34 ± 2.2 nM in the experiment on HDAC in HeLa cells and 12.3 ± 1.6 nM on human recombinant HDAC1.
